Reference: US9220706B2, “Inhibition of leukemic stem cells by PP2A activating agents” (Ohio State Innovation Foundation, priority 2012, dated 2015)

Experiments:
PP2A = molecular target: T1, PP2A (Homo sapiens, UniProt P67775); test: PP2A phosphatase assay; type: cell-based; conditions: CD34+/CD38− CML cells; FTY720 at concentration non-toxic for normal CD34+ progenitors
T1 construct: PP2Ac assays from whole cell lysates; endogenous in cells; host or cells: CD34+/CD38- and CD34+/CD38+ primary CML and normal bone-marrow cells; immunoprecipitated with Millipore PP2Ac antibody
T1 sequence (P67775 whole entry): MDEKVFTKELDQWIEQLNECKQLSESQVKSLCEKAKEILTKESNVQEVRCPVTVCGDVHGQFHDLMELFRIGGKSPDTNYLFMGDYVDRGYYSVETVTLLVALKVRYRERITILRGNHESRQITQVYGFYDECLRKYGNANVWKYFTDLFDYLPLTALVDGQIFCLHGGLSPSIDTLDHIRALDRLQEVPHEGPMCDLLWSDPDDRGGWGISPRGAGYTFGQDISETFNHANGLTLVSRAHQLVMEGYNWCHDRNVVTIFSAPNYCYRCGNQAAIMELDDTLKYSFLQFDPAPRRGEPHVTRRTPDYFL
Protocol: PP2A phosphatase assay. PP2Ac assays from whole cell lysates were carried out using the PP2Ac immunoprecipitation phosphatase assay kit (Millipore). Briefly, protein lysates (50 μg) in 100 μl of 20 mM Hepes. pH 7.0, 100 mM NaCl, 5 μg of PP2Ac antibody (Millipore), and 25 μl of Protein A-agarose were added to 400 μl of 50 mM Tris, pH 7.0, 100 mM CaCl2, and IPs were carried out at 4° C. for 2 h. IPs were used in the phosphatase reaction according to the manufacturer's protocol.

CD34+/CD38− CML cells = test: CFC/replating assay, CML cells; type: cell-based, human
Protocol: (§1) Long term culture-initiating cell (LTC-IC) and Colony-forming cell (CFC)/replating assays. 2×10^6 mononuclear CML cells were cultured with a 1:1 mixture of irradiated (80 Gy) IL-3/G-CSF-producing M2-10B4 and IL-3/KL-producing SI/SI murine fibroblasts in MyeloCult H5100 (StemCell Technologies) supplemented with hydrocortisone. Drugs were present during the first week of culture. Medium was replaced after 7 days, followed by weekly half-medium changes. After 6 weeks, adherent and floating cells were harvested and 5×10^4 cells plated into MethoCult H4435. LTC-IC-derived colonies were scored after 14 days. For CFC/replating, individual 14-day colonies from 10^3-10^5 CD34+/CD38− CML or 0.2×10^3-10^3 leukemic LSK cells plated in 0.9% H4435 or M3234 MethoCult, respectively, containing KL, G-CSF, GM-CSF, IL-3, IL-6, and Epo were replated and scored 2 weeks later.

[1] = tested on: LSK SCLtTA/BCR-ABL1 cells; test: CFC/replating assay, leukemic LSK cells; type: cell-based, mouse
Protocol: as §1

[2] = tested on: CFSE^max/CD34^+ CML cells; test: CFSE-mediated tracking of quiescent cells, CML; type: cell-based, human; conditions: CFSE-labeled CD34^+ CML cells; FTY720 at 2.5 μM
Protocol: (§2) CFSE-mediated tracking of cell division. Carboxyfluorescein diacetate succinimidyl diester (CFSE)-stained cells (CellTrace CFSE Proliferation Kit: Invitrogen) were cultured in the presence of the indicated drugs (dosed at time zero and at day three), and the cells were harvested after 3 or 6 days in culture, and stained with anti-CD34 PE, Annexin-V V450, and the viability stain 7-AAD (BD Bioscience) to determine the number of viable quiescent cells (CFSEmax/CD34^+/7-AAD− cells) and the percentage of quiescent and apoptosis-committed cells (CFSEmax/CD34+/Annexin V+/7-AAD±). Cells were sorted into dividing and quiescent populations for Western blot analysis. For assessment of mouse quiescent leukemic HSCs, Lin- cells from 8 week-induced SCLtTA/BCR-ABL1 mice were CFSE-stained and used as described above. Quiescent cells (CFSE^max/CD34^+) were reported as a fraction of the initial number of CD34^+ cells.

[3] = tested on: CFSE^max/CD34^+ NBM cells; test: CFSE-mediated tracking of quiescent cells, normal bone marrow; type: cell-based, human
Protocol: as §2

[4] = tested on: CML cells (CFSE^max/CD34^+, CD34^+/CD38^−, CD34^+); test: Annexin-V/7-AAD apoptosis staining; type: cell-based, human
Protocol: as §2

β-catenin = β-catenin immunofluorescence; type: cell-based, human
From the text: Immunofluorescence and proximity ligation assay. CD34^+/CD38^− cells from CML patient samples or LSK cells derived from induced leukemic mice were sorted, treated in liquid culture with the indicated drugs and cytospun onto glass slides. Slides were fixed in 3.7% formaldehyde, penneabilized with 0.05% Triton X-100, and stained with an Anti-®-catenin primary antibody (Cell signaling), a secondary goat F(ab′) anti-rabbit conjugated to Alexa Fluor 647, and the nuclear stain DAPI (Invitrogen); slides were mounted with Slowfade antifade reagent (Invitrogen). Microphotographs were obtained with a Zeiss LSM 510 confocal laser-scanning microscope with C-Apochromat 63/1.2 W objective. A minimum of three fields for each slide were acquired. For the Proximity Ligation Assay (PLA) CD34+/CD38− CML cells were treated, fixed, and permeabilized as described above. The slides were then simultaneously stained with a mix of mouse anti-PP2A (Millipore) and rabbit anti-SET (Globozyme) antibodies. The PLA procedure (Duolink; Olink Bioscience) was performed according to manufacturer instructions. An average of 20 z-stack ([…]) were captured with a Zeiss LSM 510 confocal laser-scanning microscope with C-Apochromat 63/1.2 W objective; at least three fields/slide were acquired. Three-dimensional projections were generated and positive signals/cell were calculated by ImageJ software (NIH).

[5] = tested on: GFP+ leukemic LSK and LT-HSC from SCLtTA/BCR-ABL1/GFP mice; test: BM serial transplantation, transgenic BCR-ABL1 mice; type: in vivo, mouse
Protocol: BM Serial Transplantation Assays and In Vivo Effect of FTY720 on LT-HSCs from Transgenic BCR-ABL1 Mice. 2×10^6 GFP+ BM or 3×10^3 GFP+ BM-derived LSK (Lin^−/Sca-1^+/Kit^+) cells from 4-week induced leukemic SCLtTA/BCR-ABL1/GFP mice were transplanted into lethally-irradiated FVB/N mice. After the onset of neutrophilia (4 weeks post-transplant), mice were FTY720- (10 mg/kg/day, i.p.) or vehicle-treated for 4 weeks. The number of total GFP+ cells and GFP+ long-term (LT)-HSCs (Lin^−/Sca-1^+/Kit^+/FLt3^−/CD150^+/CD48^−) was measured with a LSRII flow cytometer. BM cells (2×10^6, 1×10^6 and 0.5×10^6) from treated and untreated animals (8 mice/group) mixed with 2×10^5 FVB/N BM cells were transplanted into lethally-irradiated secondary recipients. Engraftment (GFP^+ in PB>0.1%) was monitored every 4 weeks, and LT-HSC frequency was determined 16 weeks after secondary transplant using Poisson statistics. All animal studies were IACUC approved.

[6] = FTY720 10 mg/kg/day i.p., 4-week treatment

Compound: CCCCCCCCc1ccc(CCC(N)(CO)CO)cc1 [FTY720]
- PP2A activity in leukemic HSCs (PP2A): restored PP2A activity at levels superimposable to those observed in the identical cell fraction from healthy donors
- reduction in replating efficiency (CD34+/CD38− CML cells): 70-90%
- reduction in replating efficiency [1]: 70-90%
- decrease in CFSE^max (quiescent) CML HSCs [2]: 60-75%
- effect on frequency/number of normal quiescent CFSE^max cells [3]: not influenced
- apoptosis of CD34^+ CML progenitors in combination with imatinib ([4]; CD34^+ CML progenitors n=10): synergizes with imatinib
- apoptosis of quiescent/HSC-enriched CML cells ([4]; CFSE^max/CD34^+ or CD34^+/CD38^− CML cells): triggered apoptosis
- β-catenin degradation (β-catenin; CD34^+/CD38^− CML, leukemic LSK, and 32D-BCR/ABL cells): induced β-catenin degradation
- β-catenin expression (β-catenin; Ph^+ CD34^+/CD38^− cells): markedly decreased
- secondary recipients with leukemic engraftment ([5]; BM from treated mice, Table I Exp 1): 25%
- Engraftment-positive at 16 weeks (>0.1% GFP+) ([5]; Experiment #1, cell dose in 2nd recipients 2,000,000): 2/8
- LT-HSC frequency ([5]; Experiment #2, Poisson statistics, 16 weeks after secondary transplant): 0.45 × 10^−6
- Engraftment-positive at 16 weeks (>0.1% GFP+) ([5]; Experiment #2, cell dose in 2nd recipients 500,000): 0/8
- Engraftment-positive at 16 weeks (>0.1% GFP+) ([5]; Experiment #2, cell dose in 2nd recipients 1,000,000): 3/7
- Engraftment-positive at 16 weeks (>0.1% GFP+) ([5]; Experiment #2, cell dose in 2nd recipients 2,000,000): 5/7
- reduction of GFP^+ (leukemic) LSK [5, 6]: ≥ 50%
- reduction of splenic and/or BM GFP^+ LT-HSC [5, 6]: ≥ 70%
- reduction of frequency of leukemic LT-HSCs ([5]; limiting dilution analysis, Table I Exp. 2): ~80%
